According to US20230265151A1, “GIP/GLP1 CO-AGONIST COMPOUNDS” (priority 2020, published 2023):
Where two headings read alike, the source gives them in different places. *1 amine or outer side, *2 acyl side, *3 side chain or, on linkers, in order; H or OH if unused. Where a SMILES comes first, the peptide text is derived from it. Side-chain parts run from the residue outwards. [ ]: non-standard residue; d: D form. The star is where a group is joined. αMePhe(2-F) = C[C@](N)(Cc1ccccc1F)C(=O)O; γGlu = O=C(O)[C@H](CCC(=O)[*:2])N[*:1]; αMeY = C[C@](N)(Cc1ccc(O)cc1)C(=O)O; αMeF = C[C@](N)(Cc1ccccc1)C(=O)O; 4Pal = N[C@@H](Cc1ccncc1)C(=O)O; αMeL = CC(C)C[C@](C)(N)C(=O)O; Lauroyl = CCCCCCCCCCCC(=O)*; Orn = NCCC[C@H](N)C(=O)O; AEEA = NCCOCCOCC(=O)O; Aib = CC(C)(N)C(=O)O

What was measured:
Assay type in all cases: cell-based
hGIPR = target: T1, hGIPR (Homo sapiens, UniProt P48546); test: Functional cAMP formation (HTRF) in HEK-293 clonal cells expressing hGIPR, 0.1% bovine casein, without or with 1.0% human serum albumin; details: for Emax: percent of maximal response to GIP(1-42)NH2; for EC50: cAMP
T1 construct: expressed in transfected cells
T1 sequence (P48546 22-466): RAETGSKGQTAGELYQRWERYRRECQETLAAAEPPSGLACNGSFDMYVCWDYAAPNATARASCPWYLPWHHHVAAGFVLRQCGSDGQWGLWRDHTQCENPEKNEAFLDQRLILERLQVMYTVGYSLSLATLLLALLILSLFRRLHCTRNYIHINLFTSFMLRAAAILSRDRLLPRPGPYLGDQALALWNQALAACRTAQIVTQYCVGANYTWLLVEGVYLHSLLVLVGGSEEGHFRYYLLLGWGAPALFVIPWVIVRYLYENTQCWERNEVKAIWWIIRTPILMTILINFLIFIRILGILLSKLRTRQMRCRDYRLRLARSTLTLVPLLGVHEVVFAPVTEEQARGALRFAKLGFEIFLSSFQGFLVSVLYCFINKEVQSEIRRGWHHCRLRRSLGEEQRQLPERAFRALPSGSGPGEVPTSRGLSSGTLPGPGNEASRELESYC
In short: (§1)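 Cells were stimulated with peptide for 30 min at 37° C, then intracellular cAMP was measured by competitive HTRF (665/620 nm ratio) and converted to nM using a cAMP standard curve. Relative EC50 and Emax came from four-parameter logistic fits of percent maximal response against peptide concentration.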

hGCGR = target: T2, hGCGR (Homo sapiens, UniProt P47871); test: Functional cAMP formation (HTRF) in HEK-293 clonal cells expressing hGCGR, 0.1% bovine casein, without or with 1.0% human serum albumin; details: cAMP, 37° C.
T2 construct: expressed in transfected cells
In short: as §1

hGLP-1R = hGLP-1R (Homo sapiens, UniProt P43220); test: Functional cAMP formation (HTRF) in HEK-293 clonal cells expressing hGLP-1R, 0.1% bovine casein, without or with 1.0% human serum albumin; design: expressed in transfected cells; details: 37° C.; for Emax: HEK293, cAMP, percent of maximal response to GLP-1(7-36)NH2, read-out: hGLP-1R Emax, % ± SEM; for EC50: cAMP, 0.1% bovine casein (no human serum albumin), geometric mean
In short: as §1

[1] = HEK293, cAMP, 37° C., 0.1% bovine casein and 1.0% human serum albumin, read-out: hGIPR Emax, % ± SEM
[2] = HEK293, cAMP, 37° C., 0.1% bovine casein, arithmetic mean, read-out: hGIPR Emax, % ± SEM
[3] = 37° C., 0.1% bovine casein (no human serum albumin), geometric mean, read-out: hGIPR EC50, nM (SEM, n)
[4] = 0.1% bovine casein (no human serum albumin), geometric mean, read-out: hGCGR EC50, nM (SEM, n)
[5] = 0.1% bovine casein and 1.0% human serum albumin, geometric mean (SEM, n), read-out: hGCGR EC50, nM (SEM, n)
[6] = 0.1% bovine casein and 1.0% human serum albumin
[7] = read-out: hGLP-1R EC50, nM (SEM, n)
[8] = HEK293, read-out: hGIPR Emax, % ± SEM, cAMP, 37° C., 0.1% bovine casein and 1.0% human serum albumin
[9] = HEK293, read-out: hGIPR Emax, % ± SEM, cAMP, 37° C., 0.1% bovine casein, arithmetic mean
[10] = hGIPR EC50, nM (SEM, n), 37° C., 0.1% bovine casein (no human serum albumin), geometric mean
[11] = hGCGR EC50, nM (SEM, n), 0.1% bovine casein (no human serum albumin), geometric mean
[12] = hGCGR EC50, nM (SEM, n), 0.1% bovine casein and 1.0% human serum albumin, geometric mean (SEM, n)

T2 sequence (P47871 26-477): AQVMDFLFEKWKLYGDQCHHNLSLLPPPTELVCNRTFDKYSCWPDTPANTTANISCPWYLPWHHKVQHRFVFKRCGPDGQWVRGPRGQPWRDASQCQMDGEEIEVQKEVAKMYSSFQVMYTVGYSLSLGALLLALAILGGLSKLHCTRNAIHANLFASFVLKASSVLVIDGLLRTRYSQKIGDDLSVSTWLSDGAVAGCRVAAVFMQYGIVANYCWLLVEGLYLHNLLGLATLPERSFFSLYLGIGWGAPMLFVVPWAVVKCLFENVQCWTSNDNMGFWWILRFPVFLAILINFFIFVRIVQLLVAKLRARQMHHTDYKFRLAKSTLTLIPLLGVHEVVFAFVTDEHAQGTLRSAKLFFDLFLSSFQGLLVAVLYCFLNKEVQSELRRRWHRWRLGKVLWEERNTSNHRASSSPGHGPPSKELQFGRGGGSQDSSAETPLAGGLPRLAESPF
Sequence of hGLP-1R (P43220 24-463): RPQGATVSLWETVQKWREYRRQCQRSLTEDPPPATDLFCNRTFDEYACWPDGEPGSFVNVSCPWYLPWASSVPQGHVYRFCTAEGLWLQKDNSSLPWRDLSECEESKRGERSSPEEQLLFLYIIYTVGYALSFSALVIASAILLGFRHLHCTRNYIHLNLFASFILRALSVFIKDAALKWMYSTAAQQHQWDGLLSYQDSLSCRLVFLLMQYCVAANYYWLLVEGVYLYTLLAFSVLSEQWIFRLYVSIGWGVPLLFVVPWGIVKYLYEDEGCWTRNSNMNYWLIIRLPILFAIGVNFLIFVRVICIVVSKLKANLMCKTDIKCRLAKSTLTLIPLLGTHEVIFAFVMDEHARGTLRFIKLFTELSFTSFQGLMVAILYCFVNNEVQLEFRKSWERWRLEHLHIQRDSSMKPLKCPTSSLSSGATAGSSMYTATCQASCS

SMILES: CCCCCCCCCCCC(=O)N[C@@H](CCC(=O)NCCOCCOCC(=O)NCCOCCOCC(=O)NCCOCCOCC(=O)NCCCC[C@H](NC(=O)[C@H](CCCN)NC(=O)[C@H](CC(=O)O)NC(=O)[C@H](CC(C)C)NC(=O)[C@](C)(CC(C)C)NC(=O)[C@@H](NC(=O)C(C)(C)NC(=O)[C@H](Cc1ccncc1)NC(=O)[C@H](CC(=O)O)NC(=O)[C@H](CO)NC(=O)[C@@H](NC(=O)[C@](C)(Cc1ccccc1F)NC(=O)[C@@H](NC(=O)CNC(=O)[C@H](CCC(=O)O)NC(=O)C(C)(C)NC(=O)[C@@H](N)Cc1ccc(O)cc1)[C@@H](C)O)[C@@H](C)O)[C@@H](C)CC)C(=O)N[C@@H](C)C(=O)N[C@@H](CCC(N)=O)C(=O)NC(C)(C)C(=O)N[C@@H](CCCCNC(=O)COCCOCCNC(=O)COCCOCCNC(=O)COCCOCCNC(=O)CC[C@H](NC(=O)CCCCCCCCCCC)C(=O)O)C(=O)N[C@@](C)(Cc1ccccc1)C(=O)N[C@H](C(=O)N[C@H](CCC(=O)O)C(=O)N[C@@](C)(Cc1ccc(O)cc1)C(=O)N[C@@H](CC(C)C)C(=O)N[C@H](C(=O)N[C@@H](CCC(=O)O)C(=O)NCC(=O)NCC(=O)N1CCC[C@H]1C(=O)N[C@@H](CO)C(=O)N[C@@H](CO)C(=O)NCC(=O)N[C@@H](C)C(=O)N1CCC[C@H]1C(=O)N1CCC[C@H]1C(=O)N1CCC[C@H]1C(=O)N[C@@H](CO)C(N)=O)[C@@H](C)CC)[C@@H](C)CC)C(=O)O [Example 437] (H-Y[Aib]EGT[αMePhe(2-F)]TSD[4Pal][Aib]I[αMeL]LD[Orn]K([AEEA-AEEA-AEEA-γGlu-Lauroyl])AQ[Aib]K([AEEA-AEEA-AEEA-γGlu-Lauroyl])[αMeF]I[dE][αMeY]LIEGGPSSGAPPPS-NH2)
- Emax (hGIPR; [1]): 96.5%
- Emax (hGIPR; [2]): 94.8%
- EC50 (hGIPR; [3]): 0.0146 nM
- EC50 (hGCGR; [4]): > 9950 nM
- EC50 (hGCGR; [5]): > 9950 nM
- Emax (hGLP-1R; [6]): 91.2%
- Emax (hGLP-1R; 0.1% bovine casein, arithmetic mean): 89.2%
- EC50 (hGLP-1R; [7]): 0.249 nM

SMILES: CC[C@H](C)[C@H](NC(=O)[C@H](CCCN)NC(=O)[C@H](CC(=O)O)NC(=O)[C@H](CC(C)C)NC(=O)[C@](C)(CC(C)C)NC(=O)[C@@H](NC(=O)C(C)(C)NC(=O)[C@@H](NC(=O)[C@H](CC(=O)O)NC(=O)[C@H](CO)NC(=O)[C@@H](NC(=O)[C@](C)(Cc1ccccc1F)NC(=O)[C@@H](NC(=O)CNC(=O)[C@H](CCC(=O)O)NC(=O)C(C)(C)NC(=O)[C@@H](N)Cc1ccc(O)cc1)[C@@H](C)O)[C@@H](C)O)C(C)C)[C@@H](C)CC)C(=O)N[C@@H](C)C(=O)N[C@@H](CCC(N)=O)C(=O)NC(C)(C)C(=O)N[C@@H](CCCCNC(=O)COCCOCCNC(=O)COCCOCCNC(=O)CC[C@H](NC(=O)CCCCCCCCCCCCC(=O)O)C(=O)O)C(=O)N[C@@H](Cc1ccccc1)C(=O)N[C@H](C(=O)N[C@H](CCC(=O)O)C(=O)N[C@@](C)(Cc1ccc(O)cc1)C(=O)N[C@@H](CC(C)C)C(=O)N[C@H](C(=O)N[C@@H](CCCCNC(=O)COCCOCCNC(=O)COCCOCCNC(=O)CC[C@H](NC(=O)CCCCCCCCCCCCC(=O)O)C(=O)O)C(=O)NCC(=O)NCC(=O)N1CCC[C@H]1C(=O)N[C@@H](CO)C(=O)N[C@@H](CO)C(=O)NCC(=O)N[C@@H](C)C(=O)N1CCC[C@H]1C(=O)N1CCC[C@H]1C(=O)N1CCC[C@H]1C(=O)N[C@@H](CO)C(N)=O)[C@@H](C)CC)[C@@H](C)CC [Example 329]
- Emax (hGIPR; [1]): 100%
- Emax (hGIPR; [2]): 109%
- EC50 (hGIPR; [3]): 0.015 nM
- EC50 (hGCGR; [4]): > 9950 nM
- EC50 (hGCGR; [5]): > 9950 nM
- Emax (hGLP-1R; [6]): 88.3%
- EC50 (hGLP-1R; [7]): 0.353 nM

SMILES: CC[C@H](C)[C@H](NC(=O)[C@H](CC(C)C)NC(=O)[C@](C)(Cc1ccc(O)cc1)NC(=O)[C@@H](CCC(=O)O)NC(=O)[C@@H](NC(=O)[C@H](Cc1ccccc1)NC(=O)[C@H](CCC(=O)O)NC(=O)C(C)(C)NC(=O)[C@H](CCC(N)=O)NC(=O)[C@H](C)NC(=O)[C@H](CCCCNC(=O)COCCOCCNC(=O)CC[C@H](NC(=O)CCCCCCCCCOc1ccc(C(=O)O)cc1)C(=O)O)NC(=O)[C@H](CCCN)NC(=O)[C@H](CC(=O)O)NC(=O)[C@H](CC(C)C)NC(=O)[C@](C)(CC(C)C)NC(=O)[C@@H](NC(=O)C(C)(C)NC(=O)[C@H](Cc1ccc(O)cc1)NC(=O)[C@H](CC(=O)O)NC(=O)[C@H](CO)NC(=O)[C@@H](NC(=O)[C@](C)(Cc1ccccc1F)NC(=O)[C@@H](NC(=O)CNC(=O)[C@H](CCC(=O)O)NC(=O)C(C)(C)NC(=O)[C@@H](N)Cc1ccc(O)cc1)[C@@H](C)O)[C@@H](C)O)[C@@H](C)CC)[C@@H](C)CC)C(=O)N[C@@H](CCC(=O)O)C(=O)NCC(=O)NCC(=O)N1CCC[C@H]1C(=O)N[C@@H](CO)C(=O)N[C@@H](CO)C(=O)NCC(=O)N[C@@H](C)C(=O)N1CCC[C@H]1C(=O)N1CCC[C@H]1C(=O)N1CCC[C@H]1C(=O)N[C@@H](CO)C(=O)N[C@@H](CCCCNC(=O)COCCOCCNC(=O)CC[C@H](NC(=O)CCCCCCCCCOc1ccc(C(=O)O)cc1)C(=O)O)C(N)=O [Example 374]
- Emax (hGIPR; [8]): 88.8%
- Emax (hGIPR; [9]): 96.2%
- EC50 (hGIPR; [10]): 0.0135 nM
- EC50 (hGCGR; [11]): > 9950 nM
- EC50 (hGCGR; [12]): > 9950 nM
- EC50 (hGLP-1R; hGLP-1R EC50, nM (SEM, n)): 0.269 nM

SMILES: CC[C@H](C)[C@H](NC(=O)[C@H](CC(C)C)NC(=O)[C@](C)(Cc1ccc(O)cc1)NC(=O)[C@@H](CCC(=O)O)NC(=O)[C@@H](NC(=O)[C@H](Cc1ccccc1)NC(=O)[C@H](CCC(=O)O)NC(=O)C(C)(C)NC(=O)[C@H](CCC(N)=O)NC(=O)[C@H](C)NC(=O)[C@H](CCCCNC(=O)COCCOCCNC(=O)CC[C@H](NC(=O)CCCCCCCCCOc1ccc(C(=O)O)cc1)C(=O)O)NC(=O)[C@H](CCCN)NC(=O)[C@H](CC(=O)O)NC(=O)[C@H](CC(C)C)NC(=O)[C@](C)(CC(C)C)NC(=O)[C@@H](NC(=O)C(C)(C)NC(=O)[C@@H](NC(=O)[C@H](CC(=O)O)NC(=O)[C@H](CO)NC(=O)[C@@H](NC(=O)[C@](C)(Cc1ccccc1F)NC(=O)[C@@H](NC(=O)CNC(=O)[C@H](CCC(=O)O)NC(=O)C(C)(C)NC(=O)[C@@H](N)Cc1ccc(O)cc1)[C@@H](C)O)[C@@H](C)O)C(C)C)[C@@H](C)CC)[C@@H](C)CC)C(=O)N[C@@H](CCCCNC(=O)COCCOCCNC(=O)CC[C@H](NC(=O)CCCCCCCCCOc1ccc(C(=O)O)cc1)C(=O)O)C(=O)NCC(=O)NCC(=O)N1CCC[C@H]1C(=O)N[C@@H](CO)C(=O)N[C@@H](CO)C(=O)NCC(=O)N[C@@H](C)C(=O)N1CCC[C@H]1C(=O)N1CCC[C@H]1C(=O)N1CCC[C@H]1C(=O)N[C@@H](CO)C(N)=O [Example 379]
- Emax (hGIPR; [8]): 90%
- Emax (hGIPR; [9]): 97.5%
- EC50 (hGIPR; [10]): 0.0167 nM
- EC50 (hGIPR; hGIPR EC50, nM (SEM, n), 37° C., 0.1% bovine casein and 1.0% human serum albumin, geometric mean (SEM, n)): 11.6 nM
- EC50 (hGCGR; [11]): > 9950 nM
- EC50 (hGCGR; [12]): > 9950 nM
- EC50 (hGLP-1R; hGLP-1R EC50, nM (SEM, n)): 0.171 nM
